Test [1] in a line: Inhibition of TPR-fused MET-mediated mouse BA/F3 cell proliferation after 48 hrs by cell titre blue based spectrophotometry.
The nature of test [2]: Inhibition of Met-mediated tumorigenesis in HGF-stimulated human HepG2 cells assessed as impairment in anchorage-independent growth by soft agar growth assay.
Test [3] in a line: Inhibition of Met-mediated tumorigenesis in HGF-stimulated human GTL16 cells assessed as impairment in anchorage-independent growth by soft agar growth assay.
Test [4] can be described thus: Inhibition of Met-mediated scattering in HGF-stimulated […] cells pre-incubated overnight prior to HGF stimulation for 24 hrs measured after 24 to 48 hrs.

Our source for the IC50 values is BindingDB's records for doi:10.1016/j.ejmech.2011.10.051 (University of The Mediterranean, 2012).

Molecules are shown by their SMILES. pIC50: −log10 of the molar value.

By pIC50 is commonly meant the IC50 on a negative log10 scale, so that one unit is a factor of ten. With `O=C(Cc1cc(C(F)(F)F)cc(C(F)(F)F)c1)N[C@@H](Cc1ccccc1)C(=O)Nc1ccc(-c2cn3c(n2)sc2ccccc23)cc1`, the pIC50 in test [1] is 5.40; in test [2], 6.49; in test [3] it was 6.09; in test [4], 6.77.
On to `O=C(Cc1cc(C(F)(F)F)cc(C(F)(F)F)c1)N[C@H](Cc1ccccc1)C(=O)Nc1ccc(-c2cn3c(n2)sc2ccccc23)cc1`, for which the pIC50 is 6.21 in test [2], 5.92 in test [3] and 6.69 in test [4].
Turning to `Cc1[nH]c(/C=C2\C(=O)Nc3ccc(S(=O)(=O)N(C)c4cccc(Cl)c4)cc32)c(C)c1C(=O)N1CCN(C)CC1` [(3Z)-N-(3-CHLOROPHENYL)-3-({3,5-DIMETHYL-4-[(4-METHYLPIPERAZIN-1-YL)CARBONYL]-1H-PYRROL-2-YL}METHYLENE)-N-METHYL-2-OXOINDOLINE-5-SULFONAMIDE], the pIC50 in test [2] is 5.81; in test [3], 6.64; in test [4] it was 6.82.
